The values that follow come from patent US12534465B2, “5H-pyrrolo[3,2-d]pyrimidine-2,4-diamino compounds and antibody conjugates thereof” (SUTRO BIOPHARMA, INC., priority 2019, dated 2026).

The nature of series [1]: Body weight / tolerability in MC38-hFolRα tumor-bearing mice. It counts as in vivo, mouse. Here is the method:
Female C57BL/6 mice at 9-10 weeks of age were anesthetized with isoflurane and implanted subcutaneously into the right hind flank with 1×10^6 MC38-hFolRα (murine colon adenocarcinoma cells engineered to express hFolRα). Randomization and start of treatment was initiated when the average tumor size was approximately 150 mm^3 (designated as Day 0 post-treatment). Animals received intratumoral (IT) injections of Compound 2 on Day 0 and Day 4 (q4d×2). Compound 2 was dissolved in DMSO and dosing solutions were formulated in PBS. Body weight and tumor size were monitored 3×/week. The primary study endpoint was reached when the mean tumor size of the vehicle control group was >1,200 mm^3.

For a further series, the system named is cyno PBMCs. The series is described as follows: Cytokine release (ELISA). The series is classed as cell-based, cynomolgus monkey. Particulars: 48 hr, 10 μg/mL LPS-RS. Here is the method: This example evaluates the ability of Compound 10 to induce cytokine release in human PBMCs, cyno PBMCs and mouse splenocytes. Compound 1 and resiquimod:
Human and cyno PBMCs, mouse splenocytes were isolated as described in previous example. The day of the assay, 300 k of PBMC or splenocytes in 50 μL of culture medium were seeded in 96-well cell culture plates. 50 μl of the test articles (formulated at 2× of starting concentration) were then added into the well. The cell mixtures were co-cultured in the presence of test articles and 10 μg/mL LPS-RS for 24 hr (human PBMCs) or 48 hr (cyno PBMCs and mouse splenocytes). Cytokines released were measured by ELISA using cell culture medium.

The subject of another series is human PBMCs. Nature of the series: Immune cell activation (CD86 expression, flow cytometry). Particulars: 48 hr, 10 μg/ml LPS-RS. The series is classed as cell-based. From the text:
This example evaluates the ability of Compound 10 to stimulate the activation of different immune cells populations (monocyte, B cell, and DCs), in human PBMCs (Peripheral blood mononuclear cells), cyno PBMCs and mouse splenocytes.
Peripheral blood mononuclear cells (PBMCs) were isolated from fresh collected blood from two healthy human donors and two cynomolgus monkey donors using Leukosep tube and Nycoprep 1.077 buffer according to the manufacture's recommendation. Mouse splenocytes were isolated from C57/BL6 mouse spleens by macerating and straining over a 70 μm cell strainer. Isolated PBMCs or splenocytes were then frozen down using frozen medium. On the day of the assay, PBMCs or splenocytes were thawed and cultured in PBMC culture medium (RPMI supplemented with 10% heat-inactivated fetal bovine serum from Hyclone, 1% Penicillin/Streptomycin and 2 mmol/L-glutamax). 300 k of PBMC or splenocytes in 50 μl of culture medium were seeded in 96-well cell culture plates. 50 μl of the test articles (formulated at 2× of starting concentration) were then added into the well. The cell mixtures were co-cultured in the presence of test articles and 10 μg/ml LPS-RS for 48 hr. The cells were collected by Accutase and then stained with antibodies to different cell population markers and activation markers. Cells were washed, fixed with 2% PFA overnight, and read on the Attune N×T cytometer (Thermo Fisher). Monocyte activation was indicated as increase of CD86 expression on CD14+ cells. B cell activation was indicated as increase of CD86 expression on CD14−/Lin+/HLA-DR+ cells. Dendritic cells (DC) activation was indicated as increase of CD86 expression on CD14−/Lin−/HLA-DR+/CD123+ cells.
(In flow cytometry, cells or beads pass a laser one at a time.)

On to `CCCCCNc1nc(N)nc2ccn(Cc3ccc(CN4CC(NC)C4)cc3OC)c12` [Compound 2, 5-(2-methoxy-4-((3-(methylamino)azetidin-1-yl)methyl)benzyl)-N4-pentyl-5H-pyrrolo[3,2-d]pyrimidine-2,4-diamine], for which the tolerability result in series [1] (0.1-2 mg/kg intratumoral, Day 0 and 4) is “well tolerated”. In addition, in series [1] (FIG. 7A legend, mice bearing MC38-hFolRα tumors), the “dose-related minimal body weight loss” value was < 10 % of predose. In series [1] (doses >0.5 mg/kg intratumoral, Day 0 and 4, recovery by approximately Day 7, FIG. 7A), the body weight loss result was “approximately 5%”.

For the compound `CCCCCNc1nc(N)nc2ccn(Cc3ccc(CN4CC5(CNCCO5)C4)cc3OC)c12` [Compound 10, 5-[[2-methoxy-4-(5-oxa-2,8-diazaspiro[3.5]nonan-2-ylmethyl)phenyl]methyl]-N4-pentyl-pyrrolo[3,2-d]pyrimidine-2,4-diamine], the IL-6 release result in the series with cyno PBMCs (FIG. 5A) is “strong”. In addition, in the series on cyno PBMCs (FIG. 5B), the MCP-1 release entry is “strong”. For the same compound, in the series on human PBMCs (FIG. 1A), the activation of monocytes entry was “very potent”. Moreover, the “activation of B cells” value in the series with human PBMCs (FIG. 1B) is “very potent”. Besides, the “activation of cDCs” value in the series on human PBMCs (FIG. 1C) is “very potent”. Moreover, the “activation of pDCs” value with human PBMCs (FIG. 1D) is reported as “very potent”.
